According to patent US20260248787A9, “MEDICAMENT FOR TREATING CANCER COMPRISING OPTICALLY ACTIVE AZABICYCLO RING DERIVATIVE” (Sumitomo Pharma Co., Ltd., priority 2023, published 2026):

Tested on: MOLM-13 cells
Experiment: Tumor-bearing mice transplanted with MOLM-13 cells, with gilteritinib, T/C (Example 12)
Assay type: in vivo
Settings: MOLM-13 tumor-bearing mice; oral; 30 mg/kg; 18 days
Procedure: The antitumor effects of the present compound and gilteritinib were evaluated. The present compound was weighed and dissolved in 0.5 w/v % Methyl Cellulose 400 solution to give the compound concentrations of 20 mg/mL and 10 mg/mL. Gilteritinib was weighed and suspended in 0.5 w/v % Methyl Cellulose 400 solution to give the compound concentrations of 3 mg/mL.
MOLM-13 cells (DSMZ) were intradermally implanted around the ventral region of 5-week old NOD. CB17-PrkdcSCID/J mice (female, The Jackson Laboratory Japan) at 1×10^6 cells/mouse. After confirming the engraftment of MOLM-13 cells 6 days after the transplantation, the present compound was orally administered to the mice at a dose of 100 mg/kg or 200 mg/kg, and gilteritinib was orally administered to the mice at a dose of 30 mg/kg, once a day for 18 days. The tumor volume was measured over time from the start of the administration, and the reduction effect of the tumor volume due to the compound-administration was evaluated. The tumor volume was calculated by the following formula using short axis and long axis of the tumor measured with an electronic caliper (Mitutoyo).
The control administration group in which only the solvent was administered and the test substance administration group were compared, and T/C was calculated using the following formula to evaluate the antitumor effect.

With `CCc1nc(C(N)=O)c(Nc2ccc(N3CCC(N4CCN(C)CC4)CC3)c(OC)c2)nc1NC1CCOCC1` [gilteritinib, reference compound] the T/C was 5.3%.
